Here are results for two compounds from US9913838B2, “Methods of treating cancer using compositions comprising perillyl alcohol derivative” (NEONC TECHNOLOGIES INC., priority 2010, dated 2018).

Entries after “also recorded” stand apart in the source; their conditions may differ.

Data set [1] relates to γ-H2AX. As to the kind of experiment: Western blot of DNA damage marker in MDA-MB-231 cells. The settings on record: MDA-MB-231, 50 μM, time course of 72 hours; in words. The data set is classed as cell-based, human. How it is done: (§1) Actin was used as a loading control.
(§2) Total cell lysates were analyzed by Western blot analysis as described in P. Pyrko et al. Downregulation of survivin expression and concomitant induction of apoptosis by celecoxib and its non-cyclooxygenase-2-inhibitory analog, dimethyl-celecoxib (DMC), in tumor cells in vitro and in vivo. Mol Cancer 5 (2006) 19. The primary antibodies were purchased from Cell Signaling Technology (Beverly, Mass.) or Santa Cruz Biotechnology, Inc. (Santa Cruz, Calif.) and used according to the manufacturers' recommendations. All immunoblots were repeated at least once to confirm the results.

Data set [2] can be described thus: Lipophilicity. The data set is classed as physicochemical. The following applies: data not shown; in words.
The test system of data set [3] is tumor brain endothelial cells (TuBEC). As to the kind of experiment: MTT cytotoxicity assay, tumor brain endothelial cells. The data set is classed as cell-based. The following applies: in words. The source says: (§3) Cancer Lett. 2011 Mar. 28; 302(2):100-8.
Data set [4] concerns MGMT-negative cell lines. In words: Colony formation assay, MGMT-negative breast cancer cell lines (summary). The data set is classed as cell-based, human. How it is done: (§4) Depending on the cell line (and plating efficiency), 200-350 cells were seeded into each well of a 6-well plate. […] Thereafter, the drugs were removed, fresh growth medium was added, and the cells were kept in culture undisturbed for 12-16 days, during which time the surviving cells spawned colonies of descendants. Colonies (defined as groups of >50 cells) were visualized by staining for 4 hours with 1% methylene blue (in methanol), and then were counted.

The subject of data set [5] is USC-04 glioma cancer stem cells. As to the kind of experiment: cells. The following applies: read-out: cytotoxicity with 1050. How it is done: MTT cytotoxicity assays were carried out after cells were treated with the TMZ alone, POH alone, or the TMZ-POH conjugate. The MTT cytotoxicity assays were carried out as described in Chen T C, et al. Green tea epigallocatechin gallate enhances therapeutic efficacy of temozolomide in orthotopic mouse glioblastoma models. Cancer Lett. 2011 Mar. 28; 302(2):100-8.

In data set [6] the test system is brain endothelial cells (BEC; confluent and subconfluent). In words: MTT cytotoxicity assay, brain endothelial cells. It counts as cell-based. The settings on record: in words.
Description: as §3

In data set [7] the test system is γ-H2AX, activated caspase 7 and cleaved PARP. As to the kind of experiment: DNA damage and cell death marker analysis in MDA-MB-231 cells (Western blot). It counts as cell-based, human. The settings on record: in words. How it is done:
FIGS. 25A-25B show DNA damage and cell death marker analysis, where MDA-MB-231 cells were used for Western blot analysis of expression levels for markers of DNA damage (γ-H2AX) and cell death (activated caspase 7 and cleaved PARP). In FIG. 25A, cells were treated with 15 μM TMZ-POH and harvested every 24 hours up to 6 days; control cells remained untreated, or received vehicle (vh.) only. In FIG. 25B, cells were treated with 20 μM of either TMZ-POH, TMZ, or POH individually, or with 20 μM TMZ combined with 20 μM POH (TMZ+POH) and harvested after 24 hours or 5 days; control cells remained untreated, or received vehicle (vh.) only. In the case of caspase 7, only the activated (cleaved) form is shown (cl. C-7).
as §2
It is known that GBM cells treated with physiological concentrations of TMZ (<100 μM) in vitro can survive for several (5-7) days seemingly unaffected before substantial cell death becomes apparent. We observed a similar phenotype when breast cancer cell lines were treated with TMZ-POH, i.e., cell cultures only began to deteriorate approximately a week after the onset of drug treatment. In order to characterize TMZ-POH-induced cell death in greater detail, we treated MDA-MB-231 cells with 15 μM of the drug and collected cell lysates daily over the course of 6 days. The lysates were analyzed by Western blot for the presence of two apoptosis markers, cleaved (i.e. activated) caspase 7 and cleaved PARP-1 (poly ADP-ribose polymerase-1), along with the DNA damage marker γ-H2AX.
As shown in FIGS. 20A-20B above, an equimolar combination of TMZ+POH was unable to achieve the same potency in blocking colony survival as the TMZ-POH conjugate. […] We treated cells with the same concentration (20 μM) of TMZ-POH, TMZ, POH, or TMZ combined with POH (TMZ+POH), and analyzed the induction of γ-H2AX, activated caspase 7, and cleaved PARP. […] Thus, the results from the cell survival assay (FIGS. 20A-20B) correlated closely with the effects of these compounds on DNA damage and apoptosis markers (FIG. 25B), and in all cases TMZ-POH clearly generated the strongest anticancer impact.

Data set [8] relates to MGMT-positive breast cancer cell lines. In words: Colony formation assay, MGMT-positive breast cancer cell lines (summary). The data set is classed as cell-based. The settings on record: Homo sapiens; range over the three MGMT-positive lines. The procedure: as §4
In data set [9] the test system is γ-H2AX. As to the kind of experiment: Western blot of DNA damage marker in MCF7 cells. It counts as cell-based, human. The following applies: MCF-7, 50 μM, 48 hours, in words. How it is done:
as §1, §2

The conditions of data set [10]: CSF versus systemic circulation; cited from earlier work.
The subject of data set [11] is a variant of MDA-MB-231. As to the kind of experiment: In vitro sensitivity of the cell line used in vivo. The settings on record: Homo sapiens, in vitro sensitivity to TMZ. The data set is classed as cell-based.
For data set [12] the following is noted: in vitro and in vivo; cited from earlier work.

For `C=C(C)[C@@H]1CC=C(COC(=O)NC(=O)c2ncn3c(=O)n(C)nnc23)CC1` [TMZ-POH], the results for the “levels of γ-H2AX” value in data set [1] and in data set [9] (pre-treated with O6-BG (30 μM)) were “substantially increased levels of γ-H2AX; also recorded: much stronger as compared to TMZ” and “increased levels of γ-H2AX became readily apparent”, respectively. Also, in data set [2], the lipophilicity entry is given as “increased over TMZ”. In addition, the “cytotoxicity (MTT assay)” value is recorded as “did not induce significant cytotoxicity” in data set [3]; “did not induce significant cytotoxicity” in data set [6] (confluent BEC); “Mild to moderate cytotoxicity” in data set [6] (subconfluent BEC, high concentrations). The IC50 in [4] (Homo sapiens, range over MGMT-negative cell lines) was 1200 to 4600 nM; in data set [5], 150 µM; in data set [8], 31 to 33 µM. For the same compound, the “active in the range of” value in data set [4] (MGMT-negative cells) was 1 to 5 µM. The “active caspase 7 and cleaved PARP” value in data set [7] (MDA-MB-231, 15 μM, over 6 days) is reported as “started to increase at day 3”. Further, in data set [7] (MDA-MB-231, 15 μM, over 6 days), the γ-H2AX expression levels result is recorded as “pronounced increase in γ-H2AX expression levels”. Besides, in data set [7] (MDA-MB-231, 20 μM, after 5 days of treatment), the “induction of γ-H2AX, activated caspase 7, and cleaved PARP” value was “induced quite prominently”. Also, the “phosphorylation of H2AX” value in data set [9] (without O6-BG) was “no increased phosphorylation of H2AX”.

On to `Cn1nnc2c(C(N)=O)ncn2c1=O` [TMZ, temozolomide, reference compound], for which, in data set [10], the “drug levels in the cerebrospinal fluid (CSF) lower than in plasma” value is recorded as 80%. In [11], this compound returned an IC50 of less than 10 µM. Also, the half-life in [12] is 1 to 2 h.
